Experimental findings from US11814366B2, “Antiviral compounds and use thereof” (UNIVERSITA DEGLI STUDI DI SIENA, priority 2018, dated 2023) are described below.

In general, pEC50 refers to the EC50 on a negative log10 scale, so that one unit is a factor of ten. Lower therefore signals a large EC50. In general, EC90 refers to the concentration needed for an effect of 90%. Read a low EC90 as an effect from little substance.

For series [1], the system named is HCMV. Description: HCMV inhibition assay on HELF cells. The format is cell-based, HCMV strain Towne. The settings on record: Human betaherpesvirus 5, HELF. The protocol:
HELF cells were pre-plated in a 96-well plate. The following day concentrations of compounds ranging from 50 μM to 0.0001 μM in DMSO were mixed with HCMV (MOI 0.005 pfu/cell) and incubated for 1 hour at 37° C. The mixtures were subsequently added to the cells, which were then incubated at 37° C. for 3 h; monolayers were then washed and overlaid with 1.2% methylcellulose medium supplemented with 3% FCS and 1 mM sodium pyruvate. After five days incubation, cells were observed under an inverted Zeiss LSM510 fluorescence microscope (Zeiss, Oberkochen, Germany) and the EC50 were calculated by comparing GFP positive cells in treated and untreated wells. The effective concentration producing 50% reduction in plaque formation (EC50) was determined using Prism software. The selectivity index (SI) was calculated by dividing the CC50 by the EC50 value.

Series [2] deals with HSV-2. Description: Entry of virus into cell (ELISA, immunofluorescence). The class given is cell-based, Herpes 2 virus (HSV-2). The settings on record: 10 μM, HSV-2, Vero cells. The protocol: Cells were plated in 96 well plates. The following day 10 μM of compound 15b in DMSO and HSV-2 (MOI 10 pfu/cell) were incubated for 1 h at 37° C. and subsequently added on cells for 1 hour at 4° C. Cells were then washed and shifted at 37° C. for 1 h and 30 minutes. Cells were then fixed with 4% paraformaldehyde, air dried and permeabilized with PBS-TRITON (0.5%) and then the same protocol described for binding was followed.
Vero cells were pre-plated on coverslips and the following day the binding or entry protocol described above was applied. Cells were then fixed with 4% paraformaldehyde, air dried and for entry protocol permeabilized with PBS-TRITON. Blocking was performed with PBS-BSA1% for 1 h at room temperature and subsequently HSV-2 polyclonal antibody (B011402-2 Dako) (1:250) was added on cells, after 1 hour at 37° C. the inoculum was removed and coverslips were washed with PBS-TWEEN for 3 times. Rhodamine conjugated anti-rabbit IgG (Santa Cruz) was then added on cells for 1 h at 37° C. following 3 washes coverslips were mounted on microscope glasses and observed with Zeiss LSM510 fluorescence microscope (Zeiss, Oberkochen, Germany) and images were acquired (FIG. 3A, 3B).

The nature of series [3]: in vitro. The settings on record: African green monkey.

pEC50: −log10 of the molar value. Entries after “also recorded” stand apart in the source; their conditions may differ.

As for `O=C1NC(=S)N(CCc2ccccc2)C(=O)/C1=C\c1ccc(-c2ccc(C(=O)O)c(O)c2)[nH]1` [Compound 15b, (Z)-4-(5-((4,6-dioxo-1-phenethyl-2-thioxotetrahydropyrimidin-5(2H)-ylidene)methyl)-1H-pyrrol-2-yl)-2-hydroxybenzoic Acid], in series [1], the pEC50 is 6.93. In series [1], the 90% effect level (EC90) was put at 0.772 µM. Besides, the “percentage of internalized virus” value in series [2] is “decreased; also recorded: lower”. Also, the CC50 in series [3] (CC50, conditions of the HSV-1 assay) is more than 300 µM; in series [3] (CC50, conditions of the HSV-2 Acy R assay) it was more than 300 µM; in series [3] (CC50, conditions of the HSV-2 assay (Table 2)), more than 300 µM; in series [3] (CC50, conditions of the ZIKAV assay (Table 3)) it was more than 111 µM.
